Calls of active or inactive are those of the source. No cut-off for these calls is given here.
Columns and labels:
[1] = biological target: T1, von Hippel-Lindau disease tumor suppressor/Protein arginine N-methyltransferase 5 (Homo sapiens, UniProt O14744+P40337); assay: PROTAC activity at […]/VHL in human MDA-MB-468 cells assessed as relative protein level at 0.5 uM measured after 24 hrs by Western blot analysis; type: cell-based
Target sequence in this assay (O14744 whole entry, looked up): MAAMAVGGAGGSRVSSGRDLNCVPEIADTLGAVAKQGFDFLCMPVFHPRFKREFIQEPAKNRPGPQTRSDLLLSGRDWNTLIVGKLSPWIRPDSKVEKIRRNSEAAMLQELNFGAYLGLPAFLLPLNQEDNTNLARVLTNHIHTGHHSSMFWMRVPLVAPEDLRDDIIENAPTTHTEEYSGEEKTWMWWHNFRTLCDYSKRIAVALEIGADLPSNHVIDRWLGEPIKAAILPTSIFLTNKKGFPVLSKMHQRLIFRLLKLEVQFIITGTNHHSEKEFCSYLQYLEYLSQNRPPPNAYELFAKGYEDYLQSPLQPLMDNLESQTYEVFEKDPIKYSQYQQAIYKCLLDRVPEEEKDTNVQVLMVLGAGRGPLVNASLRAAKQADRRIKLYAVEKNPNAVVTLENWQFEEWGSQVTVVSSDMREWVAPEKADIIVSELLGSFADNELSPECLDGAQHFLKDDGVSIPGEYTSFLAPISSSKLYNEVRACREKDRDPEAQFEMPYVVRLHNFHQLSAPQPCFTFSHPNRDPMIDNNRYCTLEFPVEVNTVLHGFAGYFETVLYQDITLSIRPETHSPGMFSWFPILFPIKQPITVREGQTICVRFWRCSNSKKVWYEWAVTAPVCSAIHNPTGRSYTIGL
Target sequence in this assay (P40337 whole entry, looked up): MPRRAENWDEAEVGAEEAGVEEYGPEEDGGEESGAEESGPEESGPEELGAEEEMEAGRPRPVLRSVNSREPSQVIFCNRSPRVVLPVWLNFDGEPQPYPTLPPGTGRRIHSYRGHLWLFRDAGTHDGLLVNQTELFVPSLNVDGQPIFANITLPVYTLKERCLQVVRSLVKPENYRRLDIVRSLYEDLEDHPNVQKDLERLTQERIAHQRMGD

[2] = biological target: T1, von Hippel-Lindau disease tumor suppressor/Protein arginine N-methyltransferase 5; assay: PROTAC activity at PRMT5/VHL in human MDA-MB-468 cells assessed as relative protein level at 5 uM measured after 24 hrs by Western blot analysis; type: cell-based
Target sequence in this assay (O14744 whole entry, looked up): as the sequence (O14744 whole entry, looked up) above
Target sequence in this assay (P40337 whole entry, looked up): as the sequence (P40337 whole entry, looked up) above

[3] = biological target: T2, von Hippel-Lindau disease tumor suppressor/Methylosome protein WDR77 (Homo sapiens, UniProt Q9BQA1+P40337); assay: PROTAC activity at MEP50/VHL in human MDA-MB-468 cells assessed as relative protein level at 5 uM measured after 24 hrs by Western blot analysis; type: cell-based
T2 sequence (P40337 whole entry, looked up): as above
T2 sequence (Q9BQA1 whole entry, looked up): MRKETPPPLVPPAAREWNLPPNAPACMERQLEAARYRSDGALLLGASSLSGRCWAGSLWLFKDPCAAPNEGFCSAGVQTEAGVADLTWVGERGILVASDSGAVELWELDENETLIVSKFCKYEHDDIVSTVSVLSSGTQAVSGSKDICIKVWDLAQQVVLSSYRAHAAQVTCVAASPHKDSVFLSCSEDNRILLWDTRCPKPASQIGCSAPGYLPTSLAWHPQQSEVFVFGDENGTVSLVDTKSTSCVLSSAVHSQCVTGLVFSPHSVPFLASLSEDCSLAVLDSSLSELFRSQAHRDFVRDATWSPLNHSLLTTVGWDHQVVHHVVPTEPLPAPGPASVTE

[4] = biological target: T1, von Hippel-Lindau disease tumor suppressor/Protein arginine N-methyltransferase 5; assay: PROTAC activity at PRMT5/VHL in human MDA-MB-468 cells assessed as degradation measured after 72 hrs by Western blot analysis; type: cell-based
Target sequence in this assay (O14744 whole entry): as the sequence (O14744 whole entry, looked up) above
Target sequence in this assay (P40337 whole entry): as the sequence (P40337 whole entry, looked up) above

[5] = biological target: T1, von Hippel-Lindau disease tumor suppressor/Protein arginine N-methyltransferase 5; assay: PROTAC activity at PRMT5/VHL in human MDA-MB-468 cells assessed as degradation at 2 uM by Western blot analysis; type: cell-based; details: time 3-48 hrs
Target sequence in this assay (O14744 whole entry, looked up): as the sequence (O14744 whole entry, looked up) above
Target sequence in this assay (P40337 whole entry, looked up): as the sequence (P40337 whole entry, looked up) above

[6] = biological target: T2, von Hippel-Lindau disease tumor suppressor/Methylosome protein WDR77; assay: PROTAC activity at MEP50/VHL in human MDA-MB-468 cells assessed as degradation at 2 uM by Western blot analysis; type: cell-based; details: time 3-48 hrs
[7] = biological target: Protein arginine N-methyltransferase 5 (Homo sapiens, UniProt O14744); assay: Inhibition of PRMT5 (unknown origin) using S-adenosylmethionine (SAM) using as substrate preincubated for 30 mins followed by substrate addition measured after 60 mins by microplate reader
Chain of Protein arginine N-methyltransferase 5 (O14744 whole entry): as the sequence (O14744 whole entry, looked up) above

[8] = biological target: T1, von Hippel-Lindau disease tumor suppressor/Protein arginine N-methyltransferase 5; assay: PROTAC activity at PRMT5/VHL in human MDA-MB-468 cells assessed as degradation pretreated with GSKi (EPZ015666) followed by treated at 5 uM of compound after 24 hrs by Western blot analysis; type: cell-based
Target sequence in this assay (O14744 whole entry, looked up): as above
Target sequence in this assay (P40337 whole entry, looked up): as the sequence (P40337 whole entry, looked up) above

[9] = biological target: T1, von Hippel-Lindau disease tumor suppressor/Protein arginine N-methyltransferase 5; assay: PROTAC activity at PRMT5/VHL in human MDA-MB-468 cells assessed as degradation pretreated with VHL-1 followed by treated at 5 uM of compound after 24 hrs by Western blot analysis; type: cell-based
Target sequence in this assay (O14744 whole entry, looked up): as the sequence (O14744 whole entry, looked up) above
Target sequence in this assay (P40337 whole entry, looked up): as the sequence (P40337 whole entry, looked up) above

[10] = biological target: T1, von Hippel-Lindau disease tumor suppressor/Protein arginine N-methyltransferase 5; assay: PROTAC activity at PRMT5/VHL in human MDA-MB-468 cells assessed as degradation pretreated with MG132 proteasome inhibitor followed by treated at 5 uM of compound after 24 hrs by Western blot analysis; type: cell-based
Target sequence in this assay (O14744 whole entry, looked up): as the sequence (O14744 whole entry, looked up) above
Target sequence in this assay (P40337 whole entry, looked up): as the sequence (P40337 whole entry, looked up) above

[11] = biological target: T1, von Hippel-Lindau disease tumor suppressor/Protein arginine N-methyltransferase 5; assay: PROTAC activity at PRMT5/VHL in human MDA-MB-468 cells assessed as degradation pretreated with MLN4924 neddylation inhibitor followed by treated at 5 uM of compound after 24 hrs by Western blot analysis; type: cell-based
[12] = biological target: T1, von Hippel-Lindau disease tumor suppressor/Protein arginine N-methyltransferase 5; assay: PROTAC activity at PRMT5/VHL in VHL KO human MDA-MB-468 cells assessed as degradation at 0.5 uM of compound after 24 hrs by Western blot analysis; type: cell-based
[13] = biological target: T2, von Hippel-Lindau disease tumor suppressor/Methylosome protein WDR77; assay: PROTAC activity at MEP50/VHL in VHL KO human MDA-MB-468 cells assessed as degradation at 0.5 uM of compound after 24 hrs by Western blot analysis; type: cell-based
[14] = biological target: T1, von Hippel-Lindau disease tumor suppressor/Protein arginine N-methyltransferase 5; assay: PROTAC activity at PRMT5/VHL in human MDA-MB-468 cells assessed as downregulation of PRMT5 at 2 uM of compound after 24 hrs by mass spectrometry (MS)-based global proteomic study; type: cell-based
[15] = biological target: T2, von Hippel-Lindau disease tumor suppressor/Methylosome protein WDR77; assay: PROTAC activity at MEP50/VHL in human MDA-MB-468 cells assessed as downregulation of MEP50 at 2 uM of compound after 24 hrs by mass spectrometry (MS)-based global proteomic study; type: cell-based
[16] = tested on: MDA-MB-468; assay: Cytotoxicity against human MDA-MB-468 cells assessed as cell viability measured after 7 days by CCK-8 assay; type: functional; details: MDA-MB-468, 168 h, time 7 day
[17] = tested on: MDA-MB-468; assay: Inhibition of sDMA (symmetric dimethylarginine) level in human MDA-MB-468 cells at 2 uM measured after 7 days by Western blot analysis; type: functional, cell-based; details: time 7.0 day
[18] = biological target: T1, von Hippel-Lindau disease tumor suppressor/Protein arginine N-methyltransferase 5; assay: PROTAC activity at PRMT5/VHL in human MDA-MB-453 cells assessed as degradation at 0.5 uM after 3 days by Western blot analysis; type: cell-based; details: time 3.0 day
[19] = biological target: T1, von Hippel-Lindau disease tumor suppressor/Protein arginine N-methyltransferase 5; assay: PROTAC activity at PRMT5/VHL in human MCF7 cells assessed as degradation at 0.5 uM after 3 days by Western blot analysis; type: cell-based; details: time 3.0 day
[20] = biological target: T1, von Hippel-Lindau disease tumor suppressor/Protein arginine N-methyltransferase 5; assay: PROTAC activity at PRMT5/VHL in human MCF7 cells assessed as degradation at 5 uM after 3 days by Western blot analysis; type: cell-based; details: time 3.0 day
[21] = biological target: T2, von Hippel-Lindau disease tumor suppressor/Methylosome protein WDR77; assay: PROTAC activity at MEP50/VHL in human MCF7 cells assessed as degradation at 5 uM after 3 days by Western blot analysis; type: cell-based; details: time 3.0 day
[22] = biological target: T1, von Hippel-Lindau disease tumor suppressor/Protein arginine N-methyltransferase 5; assay: PROTAC activity at PRMT5/VHL in human MDA-MB-231 cells assessed as degradation at 0.5 uM after 3 days by Western blot analysis; type: cell-based; details: time 3.0 day
[23] = biological target: T1, von Hippel-Lindau disease tumor suppressor/Protein arginine N-methyltransferase 5; assay: PROTAC activity at PRMT5/VHL in human MDA-MB-231 cells assessed as degradation at 5 uM after 3 days by Western blot analysis; type: cell-based; details: time 3.0 day
[24] = biological target: T2, von Hippel-Lindau disease tumor suppressor/Methylosome protein WDR77; assay: PROTAC activity at MEP50/VHL in human MDA-MB-231 cells assessed as degradation at 5 uM after 3 days by Western blot analysis; type: cell-based; details: time 3.0 day
[25] = tested on: MDA-MB-453; assay: Growth inhibition of human MDA-MB-453 cells assessed as cell viability measured after 5 days by CCK-8 assay; type: functional, cell-based; details: time 5.0 day
[26] = tested on: MCF7; assay: Growth inhibition of human MCF7 cells assessed as cell viability measured after 5 days by CCK-8 assay; type: functional, cell-based; details: time 5.0 day
[27] = tested on: BT-549; assay: Growth inhibition of human BT-549 cells assessed as cell viability measured after 5 days by CCK-8 assay; type: functional, cell-based; details: time 5.0 day
[28] = biological target: T2, von Hippel-Lindau disease tumor suppressor/Methylosome protein WDR77; assay: PROTAC activity at MEP50/VHL in human PC-3 cells assessed as degradation at 0.004 to 2.5 uM after 7 hrs by Western blot analysis; type: cell-based; details: dose 0.004-2.5 µM
[29] = tested on: PC-3; assay: Inhibition of colony formation in human PC-3 cells incubated for 10 days by crystal violet staining based analysis; type: functional, cell-based; details: time 10.0 day
[30] = biological target: T1, von Hippel-Lindau disease tumor suppressor/Protein arginine N-methyltransferase 5; assay: PROTAC activity at PRMT5/VHL in human MCF-10A cells assessed as degradation at 0.5 to 5 uM after 3 days by Western blot analysis; type: cell-based; details: dose 0.5-5 µM, time 3.0 day
[31] = tested on: MCF-10A; assay: PROTAC activity at MEP50/VHL in human MCF-10A cells assessed as degradation at 0.5 to 5 uM after 3 days by Western blot analysis; type: cell-based; details: dose 0.5-5 µM, time 3.0 day
[32] = biological target: T2, von Hippel-Lindau disease tumor suppressor/Methylosome protein WDR77; assay: PROTAC activity at MEP50/VHL in human PNT2 cells assessed as degradation at 0.5 to 5 uM after 3 days by Western blot analysis; type: cell-based; details: dose 0.5-5 µM, time 3.0 day
[33] = tested on: MCF-10A; assay: Cytotoxicity against human MCF10A cells assessed as cell viability up to 15 uM measured after 5 days by CCK-8 assay; type: toxicity, cell-based; details: 120 h, time 5 day
[34] = Cmax in Swiss albino mouse plasma at 50 mg/kg, ip measured after 0.5 hrs by LC-MS/MS analysis; type: ADME, organism-based; details: in vivo
[35] = PROTAC activity at PRMT5/VHL in human PNT2 cells assessed as degradation at 0.5 to 5 uM after 3 days by Western blot analysis; details: dose 0.5-5 µM, time 3.0 day

Cc1ncsc1-c1ccc([C@H](CC(=O)NCCOCCOCCOCCOCCOCCC(=O)N2CCC(Nc3cc(C(=O)NC[C@H](O)CN4CCc5ccccc5C4)ncn3)CC2)NC(=O)[C@@H]2C[C@@H](O)CN2C(=O)[C@@H](NC(=O)C2(F)CC2)C(C)(C)C)cc1
Activity [1]: Active | Activity [2]: Active | Activity [3]: Active | DC50 [4]: 0.0174 µM | Activity [5]: Time-dependent-effect | Activity [6]: Time-dependent-effect | IC50 [7]: 2.1 µM | Activity [8]: inactive | Activity [9]: inactive | Activity [10]: inactive | Activity [11]: inactive | Activity [12]: Not active; Complete Rescue Not Observed - Due To Incomplete Vhl Ko | Activity [13]: Not active; Complete Rescue Not Observed - Due To Incomplete Vhl Ko | Activity [14]: Active | Activity [15]: Active | GI50 [16]: 5.6 µM | inhibition [17]: Active | Activity [18]: Active | Activity [19]: Active | Activity [20]: Active | Activity [21]: Active | Activity [22]: Active | Activity [23]: Active | Activity [24]: Active | growth inhibition (GI) [25]: Active | growth inhibition (GI) [26]: Active | growth inhibition (GI) [27]: Active | Activity [28]: Active | Activity [29]: Active | Activity [30]: 100% | Activity [31]: 100% | Activity [32]: 100% | Activity [33]: Non-toxic | Cmax [34]: 17.5 µM | Activity [35]: 100%

— ChEMBL document CHEMBL6109159, “Discovery of a Potent and Selective Protein Arginine Methyltransferase 5 (PRMT5) PROTAC Degrader” (J Med Chem, 2025)
